{"source": "paper PMC12866179", "about": "“Oxidized MIF is an Alzheimer’s disease drug target relaying external risk factors to tau pathology” (Cell Reports Medicine, 2025)", "system": "HSV-1", "experiment": "Plaque assay of HSV-1-infected SH-SY5Y-tau-P301S control and MIF-knockdown cells", "type": "cell-based, HSV-1 KOS strain", "experimental": "Virus titer determination was carried out in 25-cm^2 flasks or 6-well plates with confluent Vero cells. The virus stock was serially diluted in Medium 199. 1 mL of each of the dilutions was added to the Vero cells in duplicates and incubated for 2h. Then the inoculum was aspirated and DMEM supplemented with 5% NBCS and 7.5 μg/mL human immunoglobulin (Sigma) was added. After two days the cells were washed twice with PBS and fixed with MeOH for 5 min at RT. Then 1:10 diluted KaryoMax Giemsa stain solution (Gibco) was added to the cells and incubated for 20 min at RT. Following washing with water the plaques were counted under the microscope and the titer was calculated.\n4x10^5 Vero cells, 8x10^5 SH-SY5Y or 2x10^6 differentiated LUHMES (differentiation day 6) cells were seeded into 12-well plates. After 24h the cells were treated with compounds (as indicated in the figures) and after 1h they were infected with HSV-1 applying MOIs as described in the figures. After 20h (or at indicated time points) cells were either washed twice with PBS, then lysed in cold PBS/1% NP40 including the cOmplete EDTA-free protease inhibitor cocktail (Roche) and phosphatase inhibitor cocktail (Sigma) or virus was released by freeze-thawing and ultrasonic treatment for analysis in viral plaque assay (see above).\n[…] Two-wa y ANOVA (Sidak´s post-hoc) […]"}
{"smiles": "CCc1cc(N2CCCC2)cc2[s+]c3cc(N4CCCC4)cc(C)c3nc12.[I-]", "note": "[PAV-174, 3,7-Di(pyrrolidine-1-yl) 1-ethyl-9-methyl-phenothiazin-5-ium iodide]", "values": [{"measurement": "HSV-1 titer-lowering effect in MIF-knockdown cells", "result": "did not exert comparable titer-lowering effects"}]}
